Test results taken from patent US5869476A, “Pyrimidinone derivatives” (Boryung Pharmaceutical Co., Ltd., priority 1994, dated 1999).
pIC50: −log10 of the molar value. Like-named read-outs stand apart in the source and are kept apart here.

Biological target: T1, angiotensin II receptor (Oryctolagus cuniculus, UniProt P34976)
T1 construct: The aorta was cut into 3~4 mm to form ring samples; from tissue; host or cells: isolated aorta rings of New Zealand White rabbits
T1 sequence (P34976 1-359): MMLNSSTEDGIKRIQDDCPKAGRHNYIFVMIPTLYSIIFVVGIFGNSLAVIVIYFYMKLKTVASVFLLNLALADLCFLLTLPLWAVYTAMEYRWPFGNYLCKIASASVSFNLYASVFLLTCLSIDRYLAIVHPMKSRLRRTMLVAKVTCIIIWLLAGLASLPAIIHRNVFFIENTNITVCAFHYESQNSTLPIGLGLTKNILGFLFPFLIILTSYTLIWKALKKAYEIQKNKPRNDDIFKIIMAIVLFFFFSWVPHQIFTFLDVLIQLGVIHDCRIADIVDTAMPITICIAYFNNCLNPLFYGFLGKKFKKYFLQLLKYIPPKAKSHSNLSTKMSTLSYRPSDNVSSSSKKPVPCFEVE
Experiment: inhibition of angiotensin II induced contraction of isolated rabbit aorta rings
Format: cell-based, New Zealand White rabbit
Conditions: test compound incubated 20 minutes
Summary of the method: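 Rabbit aortic rings in Krebs-Henseleit, 37 °C, pH 7.4, 2 g tension, contracted with Angiotensin II […] three times, the third serving as control. Compound incubated 20 min before rechallenge; IC50 is concentration inhibiting Angiotensin II contraction by 50%.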

[1] = 37° C., pH 7.4, read-out: IC50 (concentration being required to inhibit angiotensin II induced contraction by 50%)

Compound	pIC50 [1]	pIC50 (value given in M, read-out: IC50 (concentration being required to inhibit angiotensin II induced contraction by 50%))
CCCCc1nc(C)c(CC(=O)N2CCSC2)c(=O)n1Cc1ccc(-c2ccccc2-c2nn[nH]n2)cc1 [Compound 72, 2-n-butyl-5-thiazolidinocarbonylmethyl-6-methyl-3-[[2'-(1H-tetrazol-5-yl)biphenyl-4-yl]methyl]-pyrimidin-4-(3H)-one]	8.04	–
CCCCc1nc(C)c(CCC(=O)N2CCCC(C)(C)C2)c(=O)n1Cc1ccc(-c2ccccc2-c2nn[nH]n2)cc1 [Compound 65, 2-n-butyl-5-[2'-(3",3"-dimethylpiperidino)carbonylethyl]-6-methyl-3-[[2'-(1H-tetrazol-5-yl)biphenyl-4-yl]methyl]-pyrimidin-4-(3H)-one]	8.12	–
CCCCc1nc(C)c(CCC(=O)N2CCC(Cc3ccccc3)CC2)c(=O)n1Cc1ccc(-c2ccccc2-c2nn[nH]n2)cc1 [Compound 63, 2-n-butyl-5-[2'-(4"-benzylpiperidino)carbonylethyl]-6-methyl-3-[[2'-(1H -tetrazol-5-yl)biphenyl-4-yl]methyl]-pyrimidin-4-(3H)-one]	6.52	–
CCCCc1nc(C)c(CC(=O)N2CCSCC2)c(=O)n1Cc1ccc(-c2ccccc2-c2nn[nH]n2)cc1 [Compound 75, 2-n-butyl-5-thiomorpholinocarbonylmethyl-6-methyl-3-[[2'-(1H-tetrazol-5-yl)biphenyl-4-yl]methyl]-pyrimidin-4-(3H)-one]	8.56	–
CCCCc1nc(C)c(CC(=O)N2CCC(Cc3ccccc3)CC2)c(=O)n1Cc1ccc(-c2ccccc2-c2nn[nH]n2)cc1 [Compound 47, 2-n-butyl-5-(4'-benzylpiperidinocarbonylmethyl)-6-methyl-3-[[2'-(1H-tetrazol-5-yl)biphenyl-4-yl]methyl]-pyrimidin-4-(3H) -one]	6.89	–
CCCCc1nc(C)c(CCC(=O)N2CCSCC2)c(=O)n1Cc1ccc(-c2ccccc2-c2nn[nH]n2)cc1 [Compound 80, 2-n-butyl-5-(2'-thiomorpholinocarbonylethyl)-6-methyl-3-[[2'-(1H-tetrazol-5-yl)biphenyl-4-yl]methyl]-pyrimidin-4-(3H)-one]	8.39	–
CCCCc1nc(C)c(CCCC(=O)O)c(=O)n1Cc1ccc(-c2ccccc2-c2nnn[nH]2)cc1 [Compound 30, 2-n-butyl-5-(3'-carboxypropyl)-6-methyl-3-[[2'-(1H-tetrazol-5-yl)biphenyl-4-yl]methyl]-pyrimidin-4-(3H)-one]	8.14	–
CCCc1nc(C)c(CC(=O)O)c(=O)n1Cc1ccc(-c2ccccc2-c2nnn[nH]2)cc1 [Compound 10, 2-n-propyl-5-carboxymethyl-6-methyl-3-[[2'-(1H-tetrazol-5-yl)-biphenyl-4-yl]methyl]-pyrimidin-4-(3H)-one]	7.43	–
CCCCc1nc(C)c(CCC(=O)N2CCC(C(=O)OCC)CC2)c(=O)n1Cc1ccc(-c2ccccc2-c2nn[nH]n2)cc1 [Compound 66, 2-n-butyl-5-[2'-(4"-ethoxycarbonylpiperidino)carbonylethyl]-6-methyl-3-[[2'-(1H-tetrazol-5-yl)biphenyl-4-yl]methyl]-pyrimidin-4-(3H)-one]	8.01	–
CCCCc1nc(C)c(CCC(=O)N2CCC[C@H]2C(N)=O)c(=O)n1Cc1ccc(-c2ccccc2-c2nn[nH]n2)cc1 [Compound 60, 2-n-butyl-5-[2'-((S)-2"-aminocarbonylpyrrolidino)carbonylethyl]-6-methyl-3-[[2'-(1H-tetrazol-5-yl)biphenyl-4-yl]methyl]-pyrimidin-4-(3H)-one]	8.54	–
CCCCc1nc(C)c(CCCC(=O)N(CC)CC)c(=O)n1Cc1ccc(-c2ccccc2-c2nn[nH]n2)cc1 [Compound 32, 2-n-butyl-5-(3'-diethylaminocarbonylpropyl)-6-methyl-3-[[2'-(1H-tetrazol-5-yl)biphenyl-4-yl]methyl]-pyrimidin-4-(3H )-one]	8.53	–
CCCCc1nc(C)c(CCC(=O)N2CCOCC2)c(=O)n1Cc1ccc(-c2ccccc2-c2nn[nH]n2)cc1 [Compound 78, 2-n-butyl-5-(2'-morpholinocarbonylethyl)-6-methyl-3-[[2'-(1H-tetrazol-5-yl)biphenyl-4-yl]methyl]-pyrimidin-4-(3H)-one]	8.28	–
CCCc1nc(=O)c(CCC(=O)O)c(C)n1Cc1ccc(-c2ccccc2-c2nn[nH]n2)cc1 [Compound 15, 2-n-propyl-5-(2'-carboxyethyl)-6-methyl-1-[[2'-(1H-tetrazol-5-yl)-biphenyl-4-yl]methyl]-pyrimidin-4-(1H)-one]	7.71	–
CCCCc1nc(CC)c(CCC(=O)O)c(=O)n1Cc1ccc(-c2ccccc2-c2nn[nH]n2)cc1 [Compound 34, 2-n-butyl-5-(2'-carboxyethyl)-6-ethyl-3-[[2'-(1H-tetrazol-5-yl)-biphenyl-4-yl]methyl]-pyrimidin-4-(3H)-one]	8.38	–
CCCCc1nc(=O)c(CC(=O)N2CCCC2)c(C)n1Cc1ccc(-c2ccccc2-c2nn[nH]n2)cc1 [Compound 41, 2-n-butyl-5-pyrrolidinocarbonylmethyl-6-methyl-1-[[2'-(1H-tetrazol-5-yl)biphenyl-4-yl]methyl]-pyrimidin-4-(1H) -one]	6.92	–
CCCCc1nc(C)c(CC(=O)N2CCC(C)CC2)c(=O)n1Cc1ccc(-c2ccccc2-c2nn[nH]n2)cc1 [Compound 48, 2-n-butyl-5-(4'-methylpiperidinocarbonylmethyl)-6-methyl-3-[[2'-(1H-tetrazol-5-yl)biphenyl-4-yl]methyl]-pyrimidin-4-(3H)-one]	–	< 5.00
CCCc1nc(C)c(CCC(=O)O)c(=O)n1Cc1ccc(-c2ccccc2-c2nnn[nH]2)cc1 [Compound 14, 2-n-propyl-5-(2'-carboxyethyl)-6-methyl-3-[[2'-(1H-tetrazol-5-yl)-biphenyl-4-yl]methyl]-pyrimidin-4-(3H)-one]	8.13	–
CCc1nc(=O)c(CC(=O)O)c(C)n1Cc1ccc(-c2ccccc2-c2nnn[nH]2)cc1 [Compound 3, 2-ethyl-5-carboxymethyl-6-methyl-1-[[2'-(1H-tetrazol-5-yl)-biphenyl-4-yl]methyl]-pyrimidin-4-(1H)-one]	7.65	–
